ChEMBL document CHEMBL4041485, “Bissubvilides A and B, Cembrane-Capnosane Heterodimers from the Soft Coral Sarcophyton subviride” (J Nat Prod, 2016)
Where a name gives a salt, the structure may show the parent alone.

Legend:
Format in all cases: functional, cell-based
MG-63 = assay: Cytotoxicity against human MG63 cells by MTT assay
Huh-7 = assay: Cytotoxicity against human HuH7 cells by CCK-8 assay
A549 = assay: Cytotoxicity against human A549 cells by MTT assay

Row | Structure (SMILES) | IC50 (MG-63) | IC50 (Huh-7) | IC50 (A549)
1 | CC1=C2CCC3=CCC[C@@](C)(OC3=O)[C@@H](O)CC/C(C)=C/[C@@H]2[C@@]23CC/C(C(C)C)=C\[C@H]4[C@@](C)(O)CC[C@]4(O)[C@@](C)(CC[C@@H]2C1)OC3=O | > 30 µM | > 50 µM | > 25 µM
2 | C=C(C)/C1=C/[C@H]2[C@@](C)(O)CC[C@]2(O)[C@@]2(C)CC[C@@H]3CC(C)=C4CCC5=CCC[C@@](C)(OC5=O)[C@@H](O)CC/C(C)=C/[C@@H]4[C@]3(CC1)C(=O)O2 | > 30 µM | > 50 µM | > 25 µM
3 | COc1cccc2c1C(=O)c1c(O)c3c(c(O)c1C2=O)C[C@@](O)(C(=O)CO)C[C@@H]3O[C@H]1C[C@H](N)[C@H](O)[C@H](C)O1 [DOXORUBICIN HYDROCHLORIDE] | 2.2 µM | 14.8 µM | 2.9 µM
